These results are taken from PMC2921063 (Cancer Chemotherapy and Pharmacology, 2010).

One assay deals with rituximab. As to the kind of experiment: Cognate antibody binding to peptide beads, rituximab. The note with it: 10 μm TentaGel beads; flow cytometry and fluorescent microscopy.
Assay [1] can be described thus: Alemtuzumab bead-based detection in normal human serum. The assay is classed as binding. Conditions: alemtuzumab titrated into normal human serum; fluorescent secondary anti-human IgG; flow cytometry. (In flow cytometry, cells or beads pass a laser one at a time.)
The test system of a further assay is alemtuzumab. As to the kind of experiment: Cognate antibody binding to peptide beads, alemtuzumab. The note with it: 10 μm TentaGel beads; flow cytometry and fluorescent microscopy.

As to ACPTSNPSLCGGGS [pRTX-10T], in the assay on rituximab, the “antibody binding to peptide beads” value is recorded as “Specific cognate antibody binding was confirmed”.
With “alemtuzumab: anti-CD52 monoclonal antibody (Genzyme)”, in assay [1], the “bead fluorescence vs alemtuzumab concentration” value is reported as “fluorescent signals correlated with the alemtuzumab concentration”.
Take ACGSLSPSSCGGGS [pCp-1T]: the “antibody binding to peptide beads” value in the assay with alemtuzumab is “Specific cognate antibody binding was confirmed”.
